Measurements as given in ChEMBL document CHEMBL4219034, “Synthesis, antimicrobial activity, structure-activity relationship and cytotoxic studies of a new series of functionalized (Z)-3-(2-oxo-2-substituted ethylidene)-3,4-dihydro-2H-benzo[b][1,4]oxazin-2-ones” (Bioorg Med Chem Lett, 2017).
In brackets after ≈: the same amount, converted by molar mass. Activity calls are given as the source filed them. The rule behind the calls is not given here.

Tests used:
Assay type in all cases: functional
[1] = test system: Talaromyces funiculosus; assay: Antifungal activity against Penicillium funiculosum ATCC 11797 at 100 ug/ml incubated for 72 hrs by agar disc diffusion assay; settings: for zone of inhibition at 100 µg/mL: ATCC 11797, 72 h, read-out: IZ
[2] = test system: Bacillus subtilis; assay: Antibacterial activity against Bacillus subtilis MTCC 10619 incubated for 24 hrs by serial dilution method
[3] = test system: Fusarium oxysporum; assay: Antifungal activity against Fusarium oxysporum ATCC 62506 at 100 ug/ml incubated for 72 hrs by agar disc diffusion assay; settings: for zone of inhibition at 100 µg/mL: ATCC 62506, 72 h, read-out: IZ
[4] = test system: Trichoderma reesei; assay: Antifungal activity against Trichoderma reesei ATCC 13631 at 100 ug/ml incubated for 72 hrs by agar disc diffusion assay; settings: for zone of inhibition at 100 µg/mL: ATCC 13631, 72 h, read-out: IZ
[5] = test system: Trichoderma reesei; assay: Antifungal activity against Trichoderma reesei ATCC 13631 incubated for 24 hrs by serial dilution method
[6] = test system: Streptomyces griseus; assay: Antibacterial activity against Streptomyces griseus MTCC 4734 at 100 ug/ml incubated for 12 hrs by agar disc diffusion assay; settings: for zone of inhibition at 100 µg/mL: MTCC 4734, 12 h, read-out: IZ
[7] = test system: Escherichia coli; assay: Antibacterial activity against Escherichia coli MTCC 443 at 100 ug/ml incubated for 12 hrs by agar disc diffusion assay; settings: for zone of inhibition at 100 µg/mL: MTCC 443, 12 h, read-out: IZ
[8] = test system: Escherichia coli; assay: Antibacterial activity against Escherichia coli MTCC 443 incubated for 24 hrs by serial dilution method
[9] = test system: Talaromyces funiculosus; assay: Antifungal activity against Penicillium funiculosum ATCC 11797 incubated for 24 hrs by serial dilution method
[10] = test system: Bacillus subtilis; assay: Antibacterial activity against Bacillus subtilis MTCC 10619 at 100 ug/ml incubated for 12 hrs by agar disc diffusion assay; settings: for zone of inhibition at 100 µg/mL: MTCC 10619, 12 h, read-out: IZ
[11] = test system: Staphylococcus aureus; assay: Antibacterial activity against Staphylococcus aureus MTCC 3381 incubated for 24 hrs by serial dilution method
[12] = test system: Staphylococcus aureus; assay: Antibacterial activity against Staphylococcus aureus MTCC 3381 at 100 ug/ml incubated for 12 hrs by agar disc diffusion assay; settings: for zone of inhibition at 100 µg/mL: MTCC 3381, 12 h, read-out: IZ
[13] = test system: Aspergillus niger; assay: Antifungal activity against Aspergillus niger ATCC 9029 incubated for 24 hrs by serial dilution method
[14] = test system: Aspergillus niger; assay: Antifungal activity against Aspergillus niger ATCC 9029 at 100 ug/ml incubated for 72 hrs by agar disc diffusion assay; settings: for zone of inhibition at 100 µg/mL: ATCC 9029, 72 h, read-out: IZ
[15] = test system: Streptomyces griseus; assay: Antibacterial activity against Streptomyces griseus MTCC 4734 incubated for 24 hrs by serial dilution method
[16] = test system: Fusarium oxysporum; assay: Antifungal activity against Fusarium oxysporum ATCC 62506 incubated for 24 hrs by serial dilution method

Row | MIC ([2]; MTCC 10619, 24 h) [µg/mL] | MIC [5] | MIC ([8]; MTCC 443, 24 h) [µg/mL] | MIC [9] | MIC [13] | MIC ([15]; MTCC 4734, 24 h) [µg/mL] | MIC [16] | MIC [2] | MIC [11] | MIC [15] | SMILES | inhibition zone (IZ) [1] | inhibition zone (IZ) [3] | inhibition zone (IZ) [4] | zone of inhibition at 100 µg/mL [6] [mm] | zone of inhibition at 100 µg/mL [7] [mm] | zone of inhibition at 100 µg/mL [10] [mm] | inhibition zone (IZ) [14] | inhibition zone (IZ) [6] | inhibition zone (IZ) [10] | inhibition zone (IZ) [12] | other results
1 | 25 (≈ 70.3 µM) | inactive | 25 (≈ 70.3 µM) | inactive | inactive | 12.5 (≈ 35.2 µM) | inactive |  |  |  | Cc1ccc2c(c1)N/C(=C\C(=O)c1ccc(-c3ccccc3)cc1)C(=O)O2 | inactive | inactive | inactive | 18 | 20 | 12 | inactive |  |  |  | MIC ([11]; MTCC 3381, 24 h): 12.5 µg/mL (≈ 35.2 µM); zone of inhibition at 100 µg/mL [12]: 11 mm
2 |  | inactive |  |  |  |  | inactive | inactive | inactive | inactive | O=C1Oc2ccc(Cl)cc2N/C1=C\C(=O)c1ccc(-c2ccccc2)cc1 |  | inactive | inactive |  |  |  |  | inactive | inactive | inactive | zone of inhibition at 100 µg/mL [1]: 12 mm; inhibition zone (IZ) [7]: inactive; MIC [8]: inactive; MIC ([9]; ATCC 11797, 24 h): 25 µg/mL (≈ 66.5 µM); MIC ([13]; ATCC 9029, 24 h): 25 µg/mL (≈ 66.5 µM); zone of inhibition at 100 µg/mL [14]: 8 mm
3 | 100 (≈ 278 µM) | inactive | 100 (≈ 278 µM) | inactive | inactive | 100 (≈ 278 µM) |  |  | inactive |  | O=C1Oc2ccc([N+](=O)[O-])cc2N/C1=C\C(=O)c1cccc2ccccc12 | inactive |  | inactive | 4 | 10 | 4 | inactive |  |  | inactive | zone of inhibition at 100 µg/mL [3]: 10 mm; MIC ([16]; ATCC 62506, 24 h): 50 µg/mL (≈ 139 µM)
4 |  | inactive |  | inactive | inactive |  | inactive | inactive | inactive | inactive | Cc1ccc2c(c1)N/C(=C\C(=O)c1cccc3ccccc13)C(=O)O2 | inactive | inactive | inactive |  |  |  | inactive | inactive | inactive | inactive | inhibition zone (IZ) [7]: inactive; MIC [8]: inactive
5 |  |  | 50 (≈ 218 µM) | inactive | inactive |  |  | inactive |  | inactive | O=C1Oc2ccccc2N/C1=C\C(=O)C1CC1 | inactive |  |  |  | 10 |  | inactive | inactive | inactive |  | zone of inhibition at 100 µg/mL [3]: 8 mm; zone of inhibition at 100 µg/mL [4]: 4 mm; MIC ([5]; ATCC 13631, 24 h): 100 µg/mL (≈ 436 µM); MIC ([11]; MTCC 3381, 24 h): 100 µg/mL (≈ 436 µM); zone of inhibition at 100 µg/mL [12]: 4 mm; MIC ([16]; ATCC 62506, 24 h): 100 µg/mL (≈ 436 µM)
6 | 100 (≈ 259 µM) | inactive | 25 (≈ 64.7 µM) | inactive | inactive | 50 (≈ 129 µM) |  |  | inactive |  | O=C1Oc2cc([N+](=O)[O-])ccc2N/C1=C\C(=O)c1ccc(-c2ccccc2)cc1 | inactive |  | inactive | 10 | 12 | 8 | inactive |  |  | inactive | zone of inhibition at 100 µg/mL [3]: 18 mm; MIC ([16]; ATCC 62506, 24 h): 25 µg/mL (≈ 64.7 µM)
7 |  |  |  | inactive |  |  | inactive | inactive | inactive | inactive | O=C1Oc2ccccc2N/C1=C\C(=O)c1cccc2ccccc12 | inactive | inactive |  |  |  |  |  | inactive | inactive | inactive | zone of inhibition at 100 µg/mL [4]: 4 mm; MIC ([5]; ATCC 13631, 24 h): 100 µg/mL (≈ 317 µM); inhibition zone (IZ) [7]: inactive; MIC [8]: inactive; MIC ([13]; ATCC 9029, 24 h): 100 µg/mL (≈ 317 µM); zone of inhibition at 100 µg/mL [14]: 4 mm
8 |  | inactive |  | inactive |  |  |  | inactive | inactive | inactive | Cc1ccc2c(c1)N/C(=C\C(=O)c1ccc(C3CCCCC3)cc1)C(=O)O2 | inactive |  | inactive |  |  |  | inactive | inactive | inactive | inactive | zone of inhibition at 100 µg/mL [3]: 12 mm; inhibition zone (IZ) [7]: inactive; MIC [8]: inactive; MIC ([13]; ATCC 9029, 24 h): 100 µg/mL (≈ 277 µM); MIC ([16]; ATCC 62506, 24 h): 50 µg/mL (≈ 138 µM)
9 |  |  |  |  |  |  |  |  |  |  | CC(=O)N1CCN(c2ccc(OCC3COC(Cn4ccnc4)(c4ccc(Cl)cc4Cl)O3)cc2)CC1 (centres undefined) [KETOCONAZOLE] |  |  |  |  |  |  |  |  |  |  | zone of inhibition at 100 µg/mL [1]: 22 mm; zone of inhibition at 100 µg/mL [3]: 20 mm; zone of inhibition at 100 µg/mL [4]: 24 mm; MIC ([5]; ATCC 13631, 24 h): 25 µg/mL (≈ 47 µM); MIC ([9]; ATCC 11797, 24 h): 25 µg/mL (≈ 47 µM); MIC ([13]; ATCC 9029, 24 h): 12.5 µg/mL (≈ 23.5 µM); zone of inhibition at 100 µg/mL [14]: 18 mm; MIC ([16]; ATCC 62506, 24 h): 12.5 µg/mL (≈ 23.5 µM)
10 |  | inactive | 100 (≈ 411 µM) | inactive | inactive | 100 (≈ 411 µM) | inactive | inactive |  |  | Cc1ccc2c(c1)N/C(=C\C(=O)C1CC1)C(=O)O2 | inactive | inactive | inactive | 6 | 8 |  | inactive |  | inactive |  | MIC ([11]; MTCC 3381, 24 h): 12.5 µg/mL (≈ 51.4 µM); zone of inhibition at 100 µg/mL [12]: 14 mm
11 |  | inactive |  | inactive | inactive |  | inactive | inactive | inactive | inactive | O=C1Oc2ccc(Cl)cc2N/C1=C\C(=O)c1cccc2ccccc12 | inactive | inactive | inactive |  |  |  | inactive | inactive | inactive | inactive | inhibition zone (IZ) [7]: inactive; MIC [8]: inactive

Row | SMILES | MIC ([2]; MTCC 10619, 24 h) [µg/mL] | MIC [5] | MIC ([8]; MTCC 443, 24 h) [µg/mL] | MIC [9] | MIC [13] | MIC ([15]; MTCC 4734, 24 h) [µg/mL] | MIC [16] | MIC [2] | MIC [11] | MIC [15] | inhibition zone (IZ) [1] | inhibition zone (IZ) [3] | inhibition zone (IZ) [4] | zone of inhibition at 100 µg/mL [6] [mm] | zone of inhibition at 100 µg/mL [7] [mm] | zone of inhibition at 100 µg/mL [10] [mm] | inhibition zone (IZ) [14] | inhibition zone (IZ) [6] | inhibition zone (IZ) [10] | inhibition zone (IZ) [12] | other results
12 | O=C(N[C@H](CO)[C@H](O)c1ccc([N+](=O)[O-])cc1)C(Cl)Cl [CHLORAMPHENICOL] | 6.25 (≈ 19.3 µM) |  | 6.25 (≈ 19.3 µM) |  |  | 3.12 (≈ 9.67 µM) |  |  |  |  |  |  |  | 28 | 32 | 26 |  |  |  |  | MIC ([11]; MTCC 3381, 24 h): 6.25 µg/mL (≈ 19.3 µM); zone of inhibition at 100 µg/mL [12]: 22 mm
13 | CC1(C)S[C@@H]2[C@H](NC(=O)[C@H](N)c3ccccc3)C(=O)N2[C@H]1C(=O)O [AMPICILLIN] | 25 (≈ 71.5 µM) |  | 12.5 (≈ 35.8 µM) |  |  | 12.5 (≈ 35.8 µM) |  |  |  |  |  |  |  | 20 | 24 | 18 |  |  |  |  | MIC ([11]; MTCC 3381, 24 h): 12.5 µg/mL (≈ 35.8 µM); zone of inhibition at 100 µg/mL [12]: 11 mm
